# Assay results reported in EP0908457B1, “3-(1,2-benzisothiazol- and isoxazol-5-Y1)-2,4(1H,3H)-pyrimidinedione or thione and 3-(1,2-benzisothiazol- and isoxazol-5-y1)-4(3H)-pyrimidinone or thione herbicidal agents” (BASF AKTIENGESELLSCHAFT, priority 1997, dated 1999).
# Columns and labels:
# [1] = system: Cyperus serotinus, Rottb.; experiment: Preemergence weed control under flooded paddy conditions, CYPSE (Flatsedge); format: in vivo; on herbicidal effect rating, CYPSE: meaning of each grade not given here
# Cyperus iria = experiment: Preemergence weed control under flooded paddy conditions, CYPIR (Rice Flatsedge); format: in vivo; conditions: flooded paddy; on herbicidal effect rating, CYPIR: meaning of each grade not given here
# [2] = system: Echinochloa oryzoides (Ard.) Fritsch.; experiment: Preemergence weed control under flooded paddy conditions, ECHORC (Watergrass (Calif.)); format: in vivo; conditions: flooded paddy; on herbicidal effect rating, ECHORC: meaning of each grade not given here
# [3] = system: Oryza sativa, (L.) Tebonnet; experiment: Rice tolerance to post-transplant applications under flooded paddy conditions (Example 187), ORYSAT (Rice, Tebonnet); on herbicidal effect rating ORYSAT: meaning of each grade not given here
# Sagittaria pygmaea, L. = experiment: Preemergence weed control under flooded paddy conditions, SAGPY (Arrowhead (Pygmaea)); format: in vivo; conditions: flooded paddy; on herbicidal effect rating, SAGPY: meaning of each grade not given here
# [4] = system: Monochoria vaginalis, Presl.; experiment: Preemergence weed control under flooded paddy conditions, MOOVA (Monochoria); format: in vivo; conditions: flooded paddy; on herbicidal effect rating, MOOVA: meaning of each grade not given here
# [5] = 0.0313 kg/ha, preemergence weeds, rated three to four weeks after treatment
# [6] = 0.0625 kg/ha, preemergence weeds, rated three to four weeks after treatment
# [7] = 0.1250 kg/ha, preemergence weeds, rated three to four weeks after treatment
# [8] = 0.2500 kg/ha, preemergence weeds, rated three to four weeks after treatment
# [9] = 0.0313 kg/ha, rated three to four weeks after treatment
# [10] = 0.0625 kg/ha, rated three to four weeks after treatment
# [11] = 0.1250 kg/ha, rated three to four weeks after treatment
# [12] = 0.2500 kg/ha, rated three to four weeks after treatment
# [13] = 0.2500 kg/ha, preemergence, rated three to four weeks after treatment
# [14] = 0.0320 kg/ha, preemergence, rated three to four weeks after treatment
# [15] = 0.0620 kg/ha, preemergence, rated three to four weeks after treatment
# [16] = 0.1250 kg/ha, preemergence, rated three to four weeks after treatment
# [17] = 0.0320 kg/ha, rated three to four weeks after treatment
# [18] = 0.0620 kg/ha, rated three to four weeks after treatment
# [19] = Rate 0.0320 kg/ha, preemergence, rated 3-4 weeks after treatment
# [20] = Rate 0.0620 kg/ha, preemergence, rated 3-4 weeks after treatment
# [21] = Rate 0.1250 kg/ha, preemergence, rated 3-4 weeks after treatment
# [22] = Rate 0.2500 kg/ha, preemergence, rated 3-4 weeks after treatment
# [23] = 0.0313 kg/ha, preemergence, rated three to four weeks after treatment
# [24] = 0.0625 kg/ha, preemergence, rated three to four weeks after treatment
# [25] = Rate 0.0320 kg/ha, preemergence, rated three to four weeks after treatment
# [26] = Rate 0.0620 kg/ha, preemergence, rated three to four weeks after treatment
# [27] = Rate 0.1250 kg/ha, preemergence, rated three to four weeks after treatment
# [28] = Rate 0.2500 kg/ha, preemergence, rated three to four weeks after treatment
structure (smiles),measurement,setting,value
"Cn1c(C(F)(F)F)cc(=O)n(-c2ccc3snc(N4CCOCC4)c3c2)c1=O [Example 116, 1-Methyl-3-(3-morpholino-1,2-benzisothiazol-5-yl)-6-(trifluoromethyl)-2,4(1H,3H)-pyrimidinedione]","herbicidal effect rating, CYPSE",[1]; [5],0.0
same,"herbicidal effect rating, CYPSE",[1]; [6],0.0
same,"herbicidal effect rating, CYPSE",[1]; [7],0.0
same,"herbicidal effect rating, CYPSE",[1]; [8],0.0
same,"herbicidal effect rating, CYPIR",Cyperus iria; [5],0.0
same,"herbicidal effect rating, CYPIR",Cyperus iria; [6],0.0
same,"herbicidal effect rating, CYPIR",Cyperus iria; [7],0.0
same,"herbicidal effect rating, CYPIR",Cyperus iria; [8],0.0
same,"herbicidal effect rating, ECHORC",[2]; [5],0.0
same,"herbicidal effect rating, ECHORC",[2]; [6],0.0
same,"herbicidal effect rating, ECHORC",[2]; [7],0.0
same,"herbicidal effect rating, ECHORC",[2]; [8],0.0
same,"herbicidal effect rating, ORYSAT (rice tolerance)",[3]; [9],0.0
same,"herbicidal effect rating, ORYSAT (rice tolerance)",[3]; [10],0.0
same,"herbicidal effect rating, ORYSAT (rice tolerance)",[3]; [11],0.0
same,"herbicidal effect rating, ORYSAT (rice tolerance)",[3]; [12],0.0
same,"herbicidal effect rating, SAGPY","Sagittaria pygmaea, L.; [5]",0.0
same,"herbicidal effect rating, SAGPY","Sagittaria pygmaea, L.; [6]",0.0
same,"herbicidal effect rating, SAGPY","Sagittaria pygmaea, L.; [7]",0.0
same,"herbicidal effect rating, SAGPY","Sagittaria pygmaea, L.; [8]",0.0
same,"herbicidal effect rating, MOOVA",[4]; [5],0.0
same,"herbicidal effect rating, MOOVA",[4]; [6],2.0
same,"herbicidal effect rating, MOOVA",[4]; [7],8.0
same,"herbicidal effect rating, MOOVA",[4]; [8],8.0
"Cn1c(C(F)(F)F)cc(=O)n(-c2ccc3snc(C(C)(C)C(=O)O)c3c2)c1=O [Example 466, 1,2-Benzisothiazole-3-acetic acid, 5-[3,6-dihydro-3-methyl-2,6-dioxo-4-(trifluoromethyl)-1(2H)-pyrimidinyl]-alpha,alpha-dimethyl-]",CYPSE herbicidal rating,[1]; [13],1.0
same,CYPIR herbicidal rating,Cyperus iria; [14],3.0
same,CYPIR herbicidal rating,Cyperus iria; [15],3.0
same,CYPIR herbicidal rating,Cyperus iria; [16],7.0
same,CYPIR herbicidal rating,Cyperus iria; [13],9.0
same,ECHORC herbicidal rating,[2]; [14],2.0
same,ECHORC herbicidal rating,[2]; [15],4.0
same,ECHORC herbicidal rating,[2]; [16],5.0
same,ECHORC herbicidal rating,[2]; [13],7.0
same,ORYSAT herbicidal rating (rice tolerance),[3]; [17],4.0
same,ORYSAT herbicidal rating (rice tolerance),[3]; [18],5.0
same,ORYSAT herbicidal rating (rice tolerance),[3]; [11],7.0
same,ORYSAT herbicidal rating (rice tolerance),[3]; [12],9.0
same,SAGPY herbicidal rating,"Sagittaria pygmaea, L.; [14]",0.0
same,SAGPY herbicidal rating,"Sagittaria pygmaea, L.; [15]",0.0
same,SAGPY herbicidal rating,"Sagittaria pygmaea, L.; [16]",3.0
same,SAGPY herbicidal rating,"Sagittaria pygmaea, L.; [13]",7.0
same,MOOVA herbicidal rating,[4]; [14],7.0
same,MOOVA herbicidal rating,[4]; [15],7.0
same,MOOVA herbicidal rating,[4]; [16],9.0
same,MOOVA herbicidal rating,[4]; [13],9.0
"Cc1nsc2ccc(-n3c(=O)cc(C(F)(F)F)n(CCF)c3=O)cc12 [Example 516, 2,4(1H,3H)-Pyrimidinedione, 1-(2-fluoroethyl)-3-(3-methyl-1,2-benzisothiazol-5-yl)-6-(trifluoromethyl)-]","herbicidal effect rating, CYPSE",[1]; [19],0.0
same,"herbicidal effect rating, CYPSE",[1]; [20],0.0
same,"herbicidal effect rating, CYPSE",[1]; [21],0.0
same,"herbicidal effect rating, CYPSE",[1]; [22],0.0
same,"herbicidal effect rating, CYPIR",Cyperus iria; [19],0.0
same,"herbicidal effect rating, CYPIR",Cyperus iria; [20],0.0
same,"herbicidal effect rating, CYPIR",Cyperus iria; [21],0.0
same,"herbicidal effect rating, CYPIR",Cyperus iria; [22],2.0
same,"herbicidal effect rating, ECHORC",[2]; [19],0.0
same,"herbicidal effect rating, ECHORC",[2]; [20],0.0
same,"herbicidal effect rating, ECHORC",[2]; [21],0.0
same,"herbicidal effect rating, ECHORC",[2]; [22],0.0
same,herbicidal effect rating ORYSAT,"[3]; Rate 0.0320 kg/ha, rated 3-4 weeks after treatment",0.0
same,herbicidal effect rating ORYSAT,"[3]; Rate 0.0620 kg/ha, rated 3-4 weeks after treatment",1.0
same,herbicidal effect rating ORYSAT,"[3]; Rate 0.1250 kg/ha, rated 3-4 weeks after treatment",2.0
same,herbicidal effect rating ORYSAT,"[3]; Rate 0.2500 kg/ha, rated 3-4 weeks after treatment",3.0
same,"herbicidal effect rating, SAGPY","Sagittaria pygmaea, L.; [19]",0.0
same,"herbicidal effect rating, SAGPY","Sagittaria pygmaea, L.; [20]",0.0
same,"herbicidal effect rating, SAGPY","Sagittaria pygmaea, L.; [21]",0.0
same,"herbicidal effect rating, SAGPY","Sagittaria pygmaea, L.; [22]",0.0
same,"herbicidal effect rating, MOOVA",[4]; [19],4.0
same,"herbicidal effect rating, MOOVA",[4]; [20],6.0
same,"herbicidal effect rating, MOOVA",[4]; [21],8.0
same,"herbicidal effect rating, MOOVA",[4]; [22],9.0
"Cc1ccc(OCC(=O)OCCCl)c(-c2nsc3ccc(-n4c(=O)cc(C(F)(F)F)n(C)c4=O)cc23)c1 [Example 71, 2-Chloroethyl {{2-{5-[3,6-dihydro-3-methyl-2,6-dioxo-4-(trifluoromethyl)-1(2H)-pyrimidinyl]-1,2-benzisothiazol-3-yl}-p-tolyl}oxy}acetate]","herbicidal effect rating, CYPSE",[1]; [23],0.0
same,"herbicidal effect rating, CYPSE",[1]; [24],0.0
same,"herbicidal effect rating, CYPSE",[1]; [16],2.0
same,"herbicidal effect rating, CYPSE",[1]; [13],9.0
same,"herbicidal effect rating, CYPIR",Cyperus iria; [23],0.0
same,"herbicidal effect rating, CYPIR",Cyperus iria; [24],0.0
same,"herbicidal effect rating, CYPIR",Cyperus iria; [16],0.0
same,"herbicidal effect rating, CYPIR",Cyperus iria; [13],2.0
same,"herbicidal effect rating, ECHORC",[2]; [23],5.5
same,"herbicidal effect rating, ECHORC",[2]; [24],7.5
same,"herbicidal effect rating, ECHORC",[2]; [16],8.5
same,"herbicidal effect rating, ECHORC",[2]; [13],9.0
same,"herbicidal effect rating, ORYSAT (rice tolerance)",[3]; [9],2.0
same,"herbicidal effect rating, ORYSAT (rice tolerance)",[3]; [10],3.5
same,"herbicidal effect rating, ORYSAT (rice tolerance)",[3]; [11],5.5
same,"herbicidal effect rating, ORYSAT (rice tolerance)",[3]; [12],7.0
same,"herbicidal effect rating, SAGPY","Sagittaria pygmaea, L.; [23]",0.0
same,"herbicidal effect rating, SAGPY","Sagittaria pygmaea, L.; [24]",0.0
same,"herbicidal effect rating, SAGPY","Sagittaria pygmaea, L.; [16]",0.0
same,"herbicidal effect rating, SAGPY","Sagittaria pygmaea, L.; [13]",4.0
same,"herbicidal effect rating, MOOVA",[4]; [23],8.0
same,"herbicidal effect rating, MOOVA",[4]; [24],9.0
same,"herbicidal effect rating, MOOVA",[4]; [16],9.0
same,"herbicidal effect rating, MOOVA",[4]; [13],9.0
"Cn1c(C(F)(F)F)cc(=O)n(-c2ccc3snc(C(C)(C)C(=O)NS(C)(=O)=O)c3c2)c1=O [Example 488, 1,2-Benzisothiazole-3-acetamide, 5-[3,6-dihydro-3-methyl-2,6-dioxo-4-(trifluoromethyl)-1(2H)-pyrimidinyl]-alpha,alpha-dimethyl-N-(methylsulfonyl)-]",CYPSE herbicidal rating,[1]; [15],0.0
same,CYPSE herbicidal rating,[1]; [16],0.0
same,CYPIR herbicidal rating,Cyperus iria; [14],3.0
same,CYPIR herbicidal rating,Cyperus iria; [15],3.0
same,CYPIR herbicidal rating,Cyperus iria; [16],4.0
same,CYPIR herbicidal rating,Cyperus iria; [13],5.0
same,ECHORC herbicidal rating,[2]; [14],0.0
same,ECHORC herbicidal rating,[2]; [15],0.0
same,ECHORC herbicidal rating,[2]; [16],0.0
same,ECHORC herbicidal rating,[2]; [13],0.0
same,ORYSAT herbicidal rating (rice tolerance),[3]; [17],3.0
same,ORYSAT herbicidal rating (rice tolerance),[3]; [18],3.0
same,ORYSAT herbicidal rating (rice tolerance),[3]; [11],4.0
same,ORYSAT herbicidal rating (rice tolerance),[3]; [12],4.0
same,SAGPY herbicidal rating,"Sagittaria pygmaea, L.; [14]",0.0
same,SAGPY herbicidal rating,"Sagittaria pygmaea, L.; [15]",0.0
same,SAGPY herbicidal rating,"Sagittaria pygmaea, L.; [16]",0.0
same,SAGPY herbicidal rating,"Sagittaria pygmaea, L.; [13]",0.0
same,MOOVA herbicidal rating,[4]; [14],7.0
same,MOOVA herbicidal rating,[4]; [15],9.0
same,MOOVA herbicidal rating,[4]; [16],9.0
same,MOOVA herbicidal rating,[4]; [13],9.0
"CC/C(C=O)=C\c1nsc2ccc(-n3c(=O)cc(C(F)(F)F)n(C)c3=O)cc12 [Example 567, 1,2-Benzisothiazole-3-acrylaldehyde, 5-[3,6-dihydro-3-methyl-2,6-dioxo-4-(trifluoromethyl)-1(2H)-pyrimidinyl]-alpha-ethyl-, (E)-]","herbicidal effect rating, CYPSE",[1]; [25],0.0
same,"herbicidal effect rating, CYPSE",[1]; [26],0.0
same,"herbicidal effect rating, CYPSE",[1]; [27],0.0
same,"herbicidal effect rating, CYPSE",[1]; [28],0.0
same,"herbicidal effect rating, CYPIR",Cyperus iria; [25],4.0
same,"herbicidal effect rating, CYPIR",Cyperus iria; [26],9.0
same,"herbicidal effect rating, CYPIR",Cyperus iria; [27],4.0
same,"herbicidal effect rating, CYPIR",Cyperus iria; [28],9.0
same,"herbicidal effect rating, ECHORC",[2]; [25],0.0
same,"herbicidal effect rating, ECHORC",[2]; [26],0.0
same,"herbicidal effect rating, ECHORC",[2]; [27],2.0
same,"herbicidal effect rating, ECHORC",[2]; [28],4.0
same,herbicidal effect rating ORYSAT,"[3]; Rate 0.0320 kg/ha, rated three to four weeks after treatment",0.0
same,herbicidal effect rating ORYSAT,"[3]; Rate 0.0620 kg/ha, rated three to four weeks after treatment",0.0
same,herbicidal effect rating ORYSAT,"[3]; Rate 0.1250 kg/ha, rated three to four weeks after treatment",1.0
same,herbicidal effect rating ORYSAT,"[3]; Rate 0.2500 kg/ha, rated three to four weeks after treatment",2.0
same,"herbicidal effect rating, SAGPY","Sagittaria pygmaea, L.; [25]",0.0
same,"herbicidal effect rating, SAGPY","Sagittaria pygmaea, L.; [26]",0.0
same,"herbicidal effect rating, SAGPY","Sagittaria pygmaea, L.; [27]",0.0
same,"herbicidal effect rating, SAGPY","Sagittaria pygmaea, L.; [28]",0.0
same,"herbicidal effect rating, MOOVA",[4]; [25],0.0
same,"herbicidal effect rating, MOOVA",[4]; [26],3.0
same,"herbicidal effect rating, MOOVA",[4]; [27],9.0
same,"herbicidal effect rating, MOOVA",[4]; [28],9.0
